According to patent US20070004660A1, “Synergistic Modulation of Flt3 Kinase Using Alkylquinolines and Alkylquinazolines” (priority 2005, published 2007):

Key:
[1] = target: T1, isolated kinase domain of the human FLT3 receptor (a.a. 571-993) (Homo sapiens, UniProt P36888); assay: FLT3 fluorescence polarization kinase assay; format: biochemical; conditions: 150 uM ATP; uncertainty ±10%
T1 construct: human FLT3 receptor (a.a. 571-993)
T1 sequence (P36888 571-993): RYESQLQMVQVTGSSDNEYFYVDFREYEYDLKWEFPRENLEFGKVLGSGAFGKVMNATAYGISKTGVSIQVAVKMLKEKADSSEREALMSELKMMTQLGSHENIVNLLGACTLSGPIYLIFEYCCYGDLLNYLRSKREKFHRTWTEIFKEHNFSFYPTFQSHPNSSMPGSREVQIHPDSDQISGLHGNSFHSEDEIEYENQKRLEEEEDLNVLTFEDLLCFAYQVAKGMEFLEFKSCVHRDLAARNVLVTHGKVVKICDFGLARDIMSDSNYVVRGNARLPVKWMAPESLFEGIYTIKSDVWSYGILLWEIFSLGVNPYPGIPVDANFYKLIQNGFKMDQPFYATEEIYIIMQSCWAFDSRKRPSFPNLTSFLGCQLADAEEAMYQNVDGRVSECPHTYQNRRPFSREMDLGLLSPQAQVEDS

MV4-11 cells = assay: Inhibition of MV4-11 cell proliferation (CellTiterGlo, 72 h); format: cell-based; conditions: Homo sapiens; 72 h growth inhibition; uncertainty ±20%

IC50 [1]	IC50 (MV4-11 cells)	SMILES
55 nM	6 nM	O=C(Nc1ccc(N2CCCC2)cc1)N1CCC(c2ncnc3cc(N4CCN(CCO)CC4)ccc23)CC1 [Compound 185, 4-{7-[4-(2-Hydroxy-ethyl)-piperazin-1-yl]-quinazolin-4-yl}-piperidine-1-carboxylic acid (4-pyrrolidin-1-yl-phenyl)-amide]
1 nM	18 nM	O=C(Nc1ccc(N2CCCC2)cc1)N1CCC(c2ncnc3cc(NCCO)ccc23)CC1 [Example 175, 4-[7-(2-Hydroxy-ethylamino)-quinazolin-4-yl]-piperidine-1-carboxylic acid (4-pyrrolidin-1-yl-phenyl)-amide]
10 nM	11 nM	O=C(Nc1ccc(N2CCCC2)cc1)N1CCC(c2ncnc3cc(N4CCNC4=O)ccc23)CC1 [Compound 178, 4-[7-(2-Oxo-imidazolidin-1-yl)-quinazolin-4-yl]-piperidine-1-carboxylic acid (4-pyrrolidin-1-yl-phenyl)-amide]
67 nM	33 nM	O=C(Nc1ccc(N2CCOCC2)cc1)N1CCC(c2ncnc3cc(N4CCC[C@@H]4CO)ccc23)CC1 [Example 132, (R)-4-[7-(2-Hydroxymethyl-pyrrolidin-1-yl)-quinazolin-4-yl]-piperidine-1-carboxylic acid (4-morpholin-4-yl-phenyl)-amide]
1 nM	16 nM	O=C(Nc1ccc(N2CCCC2)cc1)N1CCC(c2ncnc3cc(N4CCC4)ccc23)CC1 [Example 173, 4-(7-Azetidin-1-yl-quinazolin-4-yl)-piperidine-1-carboxylic acid (4-pyrrolidin-1-yl-phenyl)-amide]
8 nM	11 nM	CN1CCN(CCCOc2ccc3c(C4CCN(C(=O)Nc5ccc(N6CCCC6)cc5)CC4)ncnc3c2)CC1 [Example 158, 4-{7-[3-(4-Methyl-piperazin-1-yl)-propoxy]-quinazolin-4-yl}-piperidine-1-carboxylic acid (4-pyrrolidin-1-yl-phenyl)-amide]
20 nM	0.4 nM	O=C(Nc1ccc(N2CCCC2)cc1)N1CCC(c2ncnc3cc(N4CCN(c5ccncc5)CC4)ccc23)CC1 [Compound 194, 4-[7-(4-Pyridin-4-yl-piperazin-1-yl)-quinazolin-4-yl]-piperidine-1-carboxylic acid (4-pyrrolidin-1-yl-phenyl)-amide]
7 nM	27 nM	COc1cc2ncnc(C3CCN(C(=O)Nc4ccc(C5CCCCC5)cc4)CC3)c2cc1OC [Example 21, 4-(6,7-Dimethoxy-quinazolin-4-yl)-piperidine-1-carboxylic acid (4-cyclohexyl-phenyl)-amide]
0.5 nM	9 nM	CN1CCN(CCOc2ccc3c(C4CCN(C(=O)Nc5ccc(N6CCCC6)cc5)CC4)ncnc3c2)CC1 [Example 157, 4-{7-[2-(4-Methyl-piperazin-1-yl)-ethoxy]-quinazolin-4-yl}-piperidine-1-carboxylic acid (4-pyrrolidin-1-yl-phenyl)-amide]
45 nM	170 nM	O=C(Nc1ccc(N2CCOCC2)cc1)N1CCC(c2ncnc3cc(N4CCNCC4)ccc23)CC1 [Example 140, 4-(7-Piperazin-1-yl-quinazolin-4-yl)-piperidine-1-carboxylic acid (4-morpholin-4-yl-phenyl)-amide]
1040 nM	143 nM	O=C(Nc1ccc(N2CCOCC2)cc1)N1CCC(c2ncnc3cc(N4CCNC4=O)ccc23)CC1 [Compound 197, 4-[7-(2-Oxo-imidazolidin-1-yl)-quinazolin-4-yl]-piperidine-1-carboxylic acid (4-morpholin-4-yl-phenyl)-amide]
66 nM	79 nM	CC(=O)N1CCN(c2ccc3c(C4CCN(C(=O)Nc5ccc(N6CCOCC6)cc5)CC4)ncnc3c2)CC1 [Example 141, 4-[7-(4-Acetyl-piperazin-1-yl)-quinazolin-4-yl]-piperidine-1-carboxylic acid (4-morpholin-4-yl-phenyl)-amide]
277 nM	88 nM	O=C(Nc1ccc(N2CCCC2)cc1)N1CCC(c2ncnc3cc(O[C@H]4CCOC4)ccc23)CC1 [Compound 190, (S)-4-[7-(Tetrahydro-furan-3-yloxy)-quinazolin-4-yl]-piperidine-1-carboxylic acid (4-pyrrolidin-1-yl-phenyl)-amide]
163 nM	17 nM	O=C(Nc1ccc(N2CCCC2)cc1)N1CCC(c2ncnc3cc(N4CCC(F)CC4)ccc23)CC1 [Compound 195, 4-[7-(4-Fluoro-piperidin-1-yl)-quinazolin-4-yl]-piperidine-1-carboxylic acid (4-pyrrolidin-1-yl-phenyl)-amide]
32 nM	32 nM	O=C(Nc1ccc(N2CCCC2)cc1)N1CCC(c2ncnc3cc(OCCO)ccc23)CC1 [Example 169, 4-[7-(2-Hydroxy-ethoxy)-quinazolin-4-yl]-piperidine-1-carboxylic acid (4-pyrrolidin-1-yl-phenyl)-amide]
17 nM	10 nM	COc1cc2ncnc(C3CCN(C(=O)Nc4ccc(N5CCCCC5)cc4)CC3)c2cc1OC [Example 19, 4-(6,7-Dimethoxy-quinazolin-4-yl)-piperidine-1-carboxylic acid (4-piperidin-1-yl-phenyl)-amide]
44 nM	21 nM	CS(=O)(=O)N1CCN(c2ccc3c(C4CCN(C(=O)Nc5ccc(N6CCCC6)cc5)CC4)ncnc3c2)CC1 [Example 167, 4-[7-(4-Methanesulfonyl-piperazin-1-yl)-quinazolin-4-yl]-piperidine-1-carboxylic acid (4-pyrrolidin-1-yl-phenyl)-amide]
15 nM	63 nM	CC(=O)N1CC[C@@H](Oc2ccc3c(C4CCN(C(=O)Nc5ccc(N6CCCC6)cc5)CC4)ncnc3c2)C1 [Example 154, (R)-4-[7-(1-Acetyl-pyrrolidin-3-yloxy)-quinazolin-4-yl]-piperidine-1-carboxylic acid (4-pyrrolidin-1-yl-phenyl)-amide]
4 nM	39 nM	CN(C)C(=O)N1CCN(c2ccc3c(C4CCN(C(=O)Nc5ccc(N6CCOCC6)cc5)CC4)ncnc3c2)CC1 [Example 143, 4-{4-[1-(4-Morpholin-4-yl-phenylcarbamoyl)-piperidin-4-yl]-quinazolin-7-yl}-piperazine-1-carboxylic acid dimethylamide]
2 nM	43 nM	CCN(CC)CCCOc1ccc2c(C3CCN(C(=O)Nc4ccc(N5CCOCC5)cc4)CC3)ncnc2c1 [Example 134, 4-[7-(3-Diethylamino-propoxy)-quinazolin-4-yl]-piperidine-1-carboxylic acid (4-morpholin-4-yl-phenyl)-amide]
28 nM	3 nM	CCNC(=O)N1CCN(c2ccc3c(C4CCN(C(=O)Nc5ccc(N6CCCC6)cc5)CC4)ncnc3c2)CC1 [Compound 199, 4-{4-[1-(4-Pyrrolidin-1-yl-phenylcarbamoyl)-piperidin-4-yl]-quinazolin-7-yl}-piperazine-1-carboxylic acid ethylamide]
46 nM	46 nM	CN(C)[C@@H]1CCN(c2ccc3c(C4CCN(C(=O)Nc5ccc(N6CCCC6)cc5)CC4)ncnc3c2)C1 [Example 149, (R)-4-[7-(3-Dimethylamino-pyrrolidin-1-yl)-quinazolin-4-yl]-piperidine-1-carboxylic acid (4-pyrrolidin-1-yl-phenyl)-amide]
2 nM	13 nM	O=C(Nc1ccc(N2CCCC2)cc1)N1CCC(c2ncnc3cc(N4CCN(c5ccccn5)CC4)ccc23)CC1 [Compound 192, 4-[7-(4-Pyridin-2-yl-piperazin-1-yl)-quinazolin-4-yl]-piperidine-1-carboxylic acid (4-pyrrolidin-1-yl-phenyl)-amide]
56 nM	559 nM	CC(C)c1ccc(NC(=O)CN2CCC(c3ncnc4ccccc34)CC2)cc1 [Example 16, N-(4-Isopropyl-phenyl)-2-(4-quinazolin-4-yl-piperidin-1-yl)-acetamide]
14 nM	67 nM	CN1CCN(c2ccc3c(C4CCN(C(=O)Nc5ccc(N6CCCC6)nc5)CC4)ncnc3c2)CC1 [Example 160, 4-[7-(4-Methyl-piperazin-1-yl)-quinazolin-4-yl]-piperidine-1-carboxylic acid (6-pyrrolidin-1-yl-pyridin-3-yl)-amide]
15 nM	18 nM	CN(C)C(=O)N1CCN(CCCOc2ccc3c(C4CCN(C(=O)Nc5ccc(N6CCCC6)cc5)CC4)ncnc3c2)CC1 [Example 165, 4-(3-{4-[1-(4-Pyrrolidin-1-yl-phenylcarbamoyl)-piperidin-4-yl]-quinazolin-7-yloxy}-propyl)-piperazine-1-carboxylic acid dimethylamide]
274 nM	322 nM	CS(=O)(=O)CCNc1ccc2c(C3CCN(C(=O)Nc4ccc(N5CCOCC5)cc4)CC3)ncnc2c1 [Example 146, 4-[7-(2-Methanesulfonyl-ethylamino)-quinazolin-4-yl]-piperidine-1-carboxylic acid (4-morpholin-4-yl-phenyl)-amide]
13 nM	117 nM	CN(C)CC(=O)N1CCN(c2ccc3c(C4CCN(C(=O)Nc5ccc(N6CCOCC6)cc5)CC4)ncnc3c2)CC1 [Example 144, 4-{7-[4-(2-Dimethylamino-acetyl)-piperazin-1-yl]-quinazolin-4-yl}-piperidine-1-carboxylic acid (4-morpholin-4-yl-phenyl)-amide]
